In experiment [1] the target is Protein kinase C delta type (Homo sapiens) (UniProt Q05655). Briefly: Selectivity interaction (Upstate Kinase Profiler service (Millipore)) EUB0000056c PRKCD. The following applies: at 1 µM.
The target in experiment [2] is Dual specificity tyrosine-phosphorylation-regulated kinase 1B (Homo sapiens, UniProt Q9Y463). Briefly: Selectivity interaction (ProQinase) EUB0000171b DYRK1B.
In experiment [3] the target is STE20-like serine/threonine-protein kinase (Homo sapiens, UniProt Q9H2G2). Briefly: Selectivity interaction (Kinase panel (DSF assay)) EUB0001558a SLK. In general terms: In DSF a fluorescence change marks the thermal transition of the protein.
Experiment [4] deals with Mast/stem cell growth factor receptor Kit (Homo sapiens), P10721 [L576P]. Briefly: (§1) Selectivity interaction (KinomeScan (DiscoverX)) EUB0000092b KIT. The following applies: at 10 µM.
Chain of Mast/stem cell growth factor receptor Kit (Homo sapiens), P10721 [L576P] (P10721 whole entry L576P): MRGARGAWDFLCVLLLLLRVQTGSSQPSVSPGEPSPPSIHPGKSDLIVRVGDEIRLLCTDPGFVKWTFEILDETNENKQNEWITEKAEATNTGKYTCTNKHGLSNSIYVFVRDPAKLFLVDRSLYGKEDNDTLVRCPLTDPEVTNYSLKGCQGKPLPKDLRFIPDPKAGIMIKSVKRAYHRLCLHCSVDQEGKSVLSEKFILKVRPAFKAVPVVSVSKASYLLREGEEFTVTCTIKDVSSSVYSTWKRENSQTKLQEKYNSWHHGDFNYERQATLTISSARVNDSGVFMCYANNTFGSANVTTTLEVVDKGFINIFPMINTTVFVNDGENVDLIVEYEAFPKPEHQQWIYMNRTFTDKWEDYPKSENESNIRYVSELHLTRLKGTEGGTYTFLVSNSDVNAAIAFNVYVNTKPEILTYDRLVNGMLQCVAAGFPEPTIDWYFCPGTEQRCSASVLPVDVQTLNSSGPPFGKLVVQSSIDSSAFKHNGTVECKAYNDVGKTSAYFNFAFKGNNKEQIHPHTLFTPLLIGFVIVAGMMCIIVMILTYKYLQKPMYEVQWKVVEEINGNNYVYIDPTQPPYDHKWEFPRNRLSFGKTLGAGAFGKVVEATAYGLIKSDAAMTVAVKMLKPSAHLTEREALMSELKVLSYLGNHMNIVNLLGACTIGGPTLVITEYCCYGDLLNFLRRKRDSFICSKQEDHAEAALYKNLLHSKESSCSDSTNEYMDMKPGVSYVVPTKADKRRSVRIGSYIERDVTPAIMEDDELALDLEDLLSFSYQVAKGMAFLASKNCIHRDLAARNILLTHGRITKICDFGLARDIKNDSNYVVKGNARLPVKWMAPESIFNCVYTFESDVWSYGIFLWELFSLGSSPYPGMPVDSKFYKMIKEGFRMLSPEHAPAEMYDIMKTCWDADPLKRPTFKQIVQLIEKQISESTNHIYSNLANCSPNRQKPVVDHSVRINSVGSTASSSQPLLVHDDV
The test system of experiment [5] is Mast/stem cell growth factor receptor Kit (Homo sapiens), P10721 [V559D]. The experiment is described as §1. The conditions noted are these: at 10 µM.
Chain of Mast/stem cell growth factor receptor Kit (Homo sapiens), P10721 [V559D] (P10721 whole entry V559D): as the sequence (P10721 whole entry L576P) above, with V559D, P576L counted along it
Experiment [6] has as its target RAC-alpha serine/threonine-protein kinase (Homo sapiens, UniProt P31749). Briefly: Selectivity interaction (KinomeScan (DiscoverX)) EUB0000666a AKT1. The conditions noted are these: at 10 µM.
The target in experiment [7] is T1, Rhodopsin kinase GRK7 (Homo sapiens) (UniProt Q8WTQ7).
T1 sequence (whole entry): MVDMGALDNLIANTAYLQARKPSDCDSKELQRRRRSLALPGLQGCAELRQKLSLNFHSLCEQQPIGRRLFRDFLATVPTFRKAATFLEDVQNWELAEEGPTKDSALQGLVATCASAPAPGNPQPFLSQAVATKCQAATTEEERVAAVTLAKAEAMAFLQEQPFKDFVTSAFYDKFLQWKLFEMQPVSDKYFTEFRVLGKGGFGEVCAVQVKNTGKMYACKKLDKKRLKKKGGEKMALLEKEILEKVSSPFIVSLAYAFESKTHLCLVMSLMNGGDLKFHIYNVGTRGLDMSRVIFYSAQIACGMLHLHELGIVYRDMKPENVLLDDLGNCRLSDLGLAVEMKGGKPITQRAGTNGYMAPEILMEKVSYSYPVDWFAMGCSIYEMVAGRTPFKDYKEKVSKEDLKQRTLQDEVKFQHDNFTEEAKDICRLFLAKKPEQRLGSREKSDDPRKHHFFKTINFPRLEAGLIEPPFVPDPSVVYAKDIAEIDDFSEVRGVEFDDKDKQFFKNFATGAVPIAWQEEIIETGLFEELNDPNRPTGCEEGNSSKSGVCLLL
Briefly: Selectivity interaction (KinomeScan (DiscoverX)) EUB0000666a GRK7. The following applies: at 10 µM.

Experiment [8] in a line: Selectivity interaction (KinomeScan (DiscoverX)) EUB0000666a CDK2H. The conditions noted are these: at 10 µM.
The target of experiment [9] is T2, Megakaryocyte-associated tyrosine-protein kinase (Homo sapiens) (UniProt P42679).
T2 sequence (whole entry): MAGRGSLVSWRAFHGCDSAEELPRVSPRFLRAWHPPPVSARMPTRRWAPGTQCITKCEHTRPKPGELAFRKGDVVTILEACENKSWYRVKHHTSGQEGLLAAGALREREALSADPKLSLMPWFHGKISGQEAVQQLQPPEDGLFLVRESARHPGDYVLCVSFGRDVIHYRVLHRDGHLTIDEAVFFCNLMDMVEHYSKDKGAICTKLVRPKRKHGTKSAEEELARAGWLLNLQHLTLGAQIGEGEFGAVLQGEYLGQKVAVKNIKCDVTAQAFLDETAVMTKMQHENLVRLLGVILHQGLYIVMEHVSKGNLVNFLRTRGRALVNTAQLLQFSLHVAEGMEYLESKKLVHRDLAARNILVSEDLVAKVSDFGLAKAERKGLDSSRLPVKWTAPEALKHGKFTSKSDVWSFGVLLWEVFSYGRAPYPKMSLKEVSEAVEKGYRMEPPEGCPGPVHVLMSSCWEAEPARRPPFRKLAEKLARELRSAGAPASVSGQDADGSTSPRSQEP
Briefly: Selectivity interaction (KinomeScan (DiscoverX)) EUB0000607a MATK. The conditions noted are these: at 10 µM.

Experiment [10] has as its target SRSF protein kinase 3 (Homo sapiens) (UniProt Q9UPE1). Briefly: Selectivity interaction (SelectScreen profiling (Invitrogen)) EUB0000607a SRPK3. The conditions noted are these: at 2 µM.
Experiment [11] deals with Insulin-like growth factor 1 receptor (Homo sapiens, UniProt P08069). Briefly: Selectivity interaction (Kinase panel (Invitrogen)) EUB0000639a IGF1R. The conditions noted are these: at 200 nM.
Chain of Insulin-like growth factor 1 receptor (P08069 31-736 limits assumed): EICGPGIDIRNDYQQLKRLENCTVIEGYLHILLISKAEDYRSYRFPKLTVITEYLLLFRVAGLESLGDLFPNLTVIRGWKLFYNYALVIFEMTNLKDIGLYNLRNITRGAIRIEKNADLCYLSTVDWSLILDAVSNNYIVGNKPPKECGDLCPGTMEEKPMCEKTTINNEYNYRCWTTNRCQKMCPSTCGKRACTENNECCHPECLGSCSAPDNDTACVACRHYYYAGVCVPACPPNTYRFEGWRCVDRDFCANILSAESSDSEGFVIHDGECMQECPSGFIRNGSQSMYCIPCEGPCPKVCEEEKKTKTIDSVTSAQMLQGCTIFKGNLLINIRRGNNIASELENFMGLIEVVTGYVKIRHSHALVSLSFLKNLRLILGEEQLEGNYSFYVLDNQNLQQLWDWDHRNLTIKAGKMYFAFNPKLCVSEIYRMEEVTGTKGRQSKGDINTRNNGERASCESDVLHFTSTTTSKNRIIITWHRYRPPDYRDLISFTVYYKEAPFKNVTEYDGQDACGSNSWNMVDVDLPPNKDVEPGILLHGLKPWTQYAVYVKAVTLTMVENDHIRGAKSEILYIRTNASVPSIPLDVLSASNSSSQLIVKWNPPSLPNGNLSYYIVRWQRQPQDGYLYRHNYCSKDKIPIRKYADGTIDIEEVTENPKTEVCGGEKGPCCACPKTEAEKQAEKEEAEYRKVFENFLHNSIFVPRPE
Chain of Insulin-like growth factor 1 receptor (P08069 741-1367 limits assumed): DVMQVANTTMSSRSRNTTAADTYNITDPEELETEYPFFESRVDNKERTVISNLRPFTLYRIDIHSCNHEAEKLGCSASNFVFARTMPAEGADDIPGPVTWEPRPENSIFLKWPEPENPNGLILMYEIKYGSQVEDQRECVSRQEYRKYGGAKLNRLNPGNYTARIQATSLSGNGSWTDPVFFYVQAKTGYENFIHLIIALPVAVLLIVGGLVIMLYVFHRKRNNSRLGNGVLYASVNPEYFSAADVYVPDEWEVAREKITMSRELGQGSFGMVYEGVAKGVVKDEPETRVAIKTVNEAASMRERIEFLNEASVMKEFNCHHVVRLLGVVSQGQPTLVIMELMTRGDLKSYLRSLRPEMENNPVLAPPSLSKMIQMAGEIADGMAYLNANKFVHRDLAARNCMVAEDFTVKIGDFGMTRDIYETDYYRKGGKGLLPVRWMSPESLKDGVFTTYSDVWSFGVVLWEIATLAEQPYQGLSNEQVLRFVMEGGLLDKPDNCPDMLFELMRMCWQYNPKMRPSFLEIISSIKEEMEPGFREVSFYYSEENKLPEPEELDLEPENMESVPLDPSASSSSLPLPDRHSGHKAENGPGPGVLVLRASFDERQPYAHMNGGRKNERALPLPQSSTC
Experiment [12] has as its target Cyclin-dependent kinase 14 (Homo sapiens) (UniProt O94921). Briefly: Selectivity interaction (ActivX KiNativ screen (kinase selectivity in THP-1 cell lysates)) EUB0000639a CDK14. The conditions noted are these: lysate. Format: subcellular.
The target of experiment [13] is Proto-oncogene tyrosine-protein kinase Src (Homo sapiens, UniProt P12931). Briefly: Selectivity interaction (KinomeScan (DiscoverX)) EUB0000229b SRC. The conditions noted are these: at 10 µM.
Experiment [14] deals with Serine/threonine-protein kinase tousled-like 2 (Homo sapiens) (UniProt Q86UE8). Briefly: Selectivity interaction (KinomeScan (DiscoverX)) EUB0000229b TLK2. The conditions noted are these: at 10 µM.
The next experiment deals with Aurora kinase B (Homo sapiens, UniProt Q96GD4). Briefly: Selectivity interaction (Kinase panel (DSF assay)) EUB0001559a AURKB.
Chain of Aurora kinase B (Q96GD4 whole entry): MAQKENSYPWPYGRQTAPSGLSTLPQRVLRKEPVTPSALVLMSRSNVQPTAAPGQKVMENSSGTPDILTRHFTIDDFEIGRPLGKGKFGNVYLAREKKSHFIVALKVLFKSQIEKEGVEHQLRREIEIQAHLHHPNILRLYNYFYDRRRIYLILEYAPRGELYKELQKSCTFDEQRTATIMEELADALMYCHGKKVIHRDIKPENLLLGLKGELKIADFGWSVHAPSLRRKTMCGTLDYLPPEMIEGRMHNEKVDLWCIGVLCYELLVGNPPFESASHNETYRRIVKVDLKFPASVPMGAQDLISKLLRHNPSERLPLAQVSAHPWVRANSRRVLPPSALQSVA
Experiment [15] addresses 5'-AMP-activated protein kinase catalytic subunit alpha-1 (Homo sapiens, UniProt Q13131). Briefly: Selectivity interaction (KinomeScan (DiscoverX)) EUB0000595a PRKAA1. The following applies: at 10 µM.

Results on ten compounds are retold here after ChEMBL document CHEMBL5465560, “Selectivity Literature for EUbOPEN Chemogenomic Library” (2024).

Chain of Cyclin-dependent kinase 14 (Homo sapiens) (O94921 whole entry): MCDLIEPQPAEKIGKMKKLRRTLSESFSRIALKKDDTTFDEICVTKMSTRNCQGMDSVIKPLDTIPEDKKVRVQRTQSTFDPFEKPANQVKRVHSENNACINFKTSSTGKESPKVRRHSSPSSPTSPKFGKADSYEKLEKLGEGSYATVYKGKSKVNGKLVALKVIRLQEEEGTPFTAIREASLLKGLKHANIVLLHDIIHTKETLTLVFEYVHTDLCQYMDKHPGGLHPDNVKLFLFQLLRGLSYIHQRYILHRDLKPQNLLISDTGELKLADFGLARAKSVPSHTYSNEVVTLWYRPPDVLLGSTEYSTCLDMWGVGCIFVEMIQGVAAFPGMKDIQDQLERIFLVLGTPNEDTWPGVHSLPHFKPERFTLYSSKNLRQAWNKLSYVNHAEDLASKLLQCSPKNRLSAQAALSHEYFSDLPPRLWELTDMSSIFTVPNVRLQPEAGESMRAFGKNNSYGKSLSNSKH
Chain of Dual specificity tyrosine-phosphorylation-regulated kinase 1B (Q9Y463 whole entry, looked up): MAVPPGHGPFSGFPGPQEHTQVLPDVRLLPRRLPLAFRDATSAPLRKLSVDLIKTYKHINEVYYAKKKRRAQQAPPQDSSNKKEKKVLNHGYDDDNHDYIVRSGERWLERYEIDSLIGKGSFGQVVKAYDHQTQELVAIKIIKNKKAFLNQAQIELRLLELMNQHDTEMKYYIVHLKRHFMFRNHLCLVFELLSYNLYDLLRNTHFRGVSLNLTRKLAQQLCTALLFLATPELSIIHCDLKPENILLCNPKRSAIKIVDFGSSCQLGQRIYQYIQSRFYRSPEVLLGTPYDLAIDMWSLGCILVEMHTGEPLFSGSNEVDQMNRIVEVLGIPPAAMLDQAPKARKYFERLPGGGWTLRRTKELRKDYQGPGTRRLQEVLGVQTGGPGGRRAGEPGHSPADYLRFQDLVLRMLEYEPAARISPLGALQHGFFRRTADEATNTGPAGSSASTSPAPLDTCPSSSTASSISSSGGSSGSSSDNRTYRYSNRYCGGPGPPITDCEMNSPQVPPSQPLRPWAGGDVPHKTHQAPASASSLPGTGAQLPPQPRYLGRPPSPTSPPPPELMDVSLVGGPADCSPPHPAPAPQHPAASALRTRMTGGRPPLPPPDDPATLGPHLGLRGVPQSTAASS
Chain of 5'-AMP-activated protein kinase catalytic subunit alpha-1 (Q13131 whole entry, looked up): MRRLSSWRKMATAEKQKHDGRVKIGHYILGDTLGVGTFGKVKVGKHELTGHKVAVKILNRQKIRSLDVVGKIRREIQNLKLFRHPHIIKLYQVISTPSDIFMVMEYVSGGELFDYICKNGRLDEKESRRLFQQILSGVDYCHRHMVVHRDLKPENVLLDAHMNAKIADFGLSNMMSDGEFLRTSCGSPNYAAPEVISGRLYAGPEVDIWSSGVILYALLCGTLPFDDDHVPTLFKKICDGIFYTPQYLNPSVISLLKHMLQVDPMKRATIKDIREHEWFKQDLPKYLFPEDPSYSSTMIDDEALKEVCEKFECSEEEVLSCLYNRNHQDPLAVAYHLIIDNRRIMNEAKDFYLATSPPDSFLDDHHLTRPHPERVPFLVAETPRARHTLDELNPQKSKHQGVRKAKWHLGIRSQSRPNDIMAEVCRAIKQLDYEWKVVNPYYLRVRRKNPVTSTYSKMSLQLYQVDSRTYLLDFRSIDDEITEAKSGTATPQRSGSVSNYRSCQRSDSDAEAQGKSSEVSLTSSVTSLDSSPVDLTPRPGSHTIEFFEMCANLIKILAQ
Chain of RAC-alpha serine/threonine-protein kinase (P31749 whole entry): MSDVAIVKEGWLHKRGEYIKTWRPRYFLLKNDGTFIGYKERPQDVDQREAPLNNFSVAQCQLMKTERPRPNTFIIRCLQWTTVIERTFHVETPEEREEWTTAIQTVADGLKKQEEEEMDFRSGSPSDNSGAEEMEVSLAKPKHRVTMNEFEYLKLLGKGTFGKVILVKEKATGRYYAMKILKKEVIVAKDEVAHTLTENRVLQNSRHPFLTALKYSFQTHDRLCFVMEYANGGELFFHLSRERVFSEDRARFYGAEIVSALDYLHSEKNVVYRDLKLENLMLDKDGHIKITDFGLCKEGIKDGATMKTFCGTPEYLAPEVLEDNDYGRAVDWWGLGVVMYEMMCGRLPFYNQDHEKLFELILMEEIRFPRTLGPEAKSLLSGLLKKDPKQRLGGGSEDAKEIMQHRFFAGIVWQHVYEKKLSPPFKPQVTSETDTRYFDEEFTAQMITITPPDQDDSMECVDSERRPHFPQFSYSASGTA

As to `Cc1ccc(-c2ccc3c(ccc4sc5c(c43)NC[C@@H](C)NC5=O)n2)cn1`, in [1], the % of inhibition was found to be 33%.

With `C=CC(=O)Nc1cccc(C(=O)Nc2ccc(Nc3cc(-c4[nH]c(SC)nc4C)ccn3)cc2)c1`, the % of control in experiment [2] (at 1 µM) was 85%; in experiment [2] (at 5 µM), 53%.

In [3], `CC(C)(O)[C@H](F)CN1Cc2cc(NC(=O)c3cnn4cccnc34)c(N3CCOCC3)cc2C1=O` registered a dTM of 1.7 K.

For `CCC(=O)N1CCN(c2ccc(-n3c(=O)ccc4cnc5ccc(-c6cnc7ccccc7c6)cc5c43)cc2C(F)(F)F)CC1`, the figures for the % of control in [4] and in [5] were 48% and 50%, respectively.

With `O=C(NOC[C@H](O)CO)c1ccc(F)c(F)c1Nc1ccc(I)cc1F`, the % of control is 81% in experiment [6], 100% in experiment [7] and 100% in experiment [8].

In experiment [9], `CNC(=O)Nc1ccc(-c2nc(N3CC4CCC(C3)O4)c3cnn(C4CCC5(CC4)OCCO5)c3n2)cc1` yielded a % of control of 100%. In experiment [10], the % of inhibition was 6%.

Regarding `CC[C@@H]1[C@H](F)C(=O)N[C@@H]1COc1nccc2cc(C(N)=O)c(OC)cc12` [ZIMLOVISERTIB], the % of inhibition in experiment [11] is 7.84%; in [12] (at 0.01 µM) it was -6.2%; in experiment [12] (at 0.04 µM), 2.9%; in experiment [12] (at 0.2 µM) it was -6.5%; in experiment [12] (at 1 µM), 12.2%; in [12] (at 5 µM), 16.4%.

With `COc1cc(N(C)c2ccnc3ccc(C(F)(F)F)cc23)cc(OC)c1OC`, the results for the % binding in experiment [13] and in experiment [14] were 100% and 92%, respectively.

With `CN(C(=O)c1cnn2cccnc12)c1cc2c(cc1N1CCOCC1)C(=O)N(C[C@@H](F)C(C)(C)O)C2`, at Aurora kinase B, the dTM was -1.6 K.

Turning to `COCC(=O)NC/C=C/c1ccc2ncnc(Nc3ccc(Oc4ccc(C)nc4)c(C)c3)c2c1` [CP-724714], in [15], the % of control was determined as 89%.
